Laboratory results taken from patent US11840686B2, “Modulation of prekallikrein (PKK) expression” (Ionis Pharmaceuticals, Inc., priority 2013, dated 2023).
Strand notation (5' to 3'): a small letter for the sugar, then the base; units joined by * are phosphorothioate-linked, units joined directly phosphodiester-linked; [ ] holds rarer units or linkages, { } end groups; capitals alone tell only the bases. e = 2'-O-(2-methoxyethyl) (MOE); [5mC] = 5-methylcytosine; d = 2'-deoxy (DNA)

Tests used:
Format in all cases: in vivo, mouse
[1] = system: vascular leakage; experiment: Vascular leakage, plasma Evans Blue OD620, basal model (Example 14)
Procedure: Groups 3, 4, 5, 6, 7, and 8 consisted of 8 mice each and were treated with 2.5 mg/kg, 5 mg/kg, 10 mg/kg, 20 mg/kg, 40 mg/kg, or 80 mg/kg (corresponding to 5 mg/kg, 10 mg/kg, 20 mg/kg, 40 mg/kg, 80 mg/kg, or 160 mg/kg per week), respectively of ISIS 482584 administered subcutaneously twice a week for 3 weeks. […] served as the experimental treatment groups for examining the effect of varying doses of ISIS 482584 on basal vascular permeability.
All the groups were then injected with 30 mg/kg of Evans Blue solution in the tail vein. The mice were sacrificed 30 min after the Evans Blue solution administration and colons, feet, and ears were harvested and examined for permeability defects. Blood samples were taken through cardiac puncture.
The blood drawn through cardiac puncture was immediately mixed with 3 times the volume of ice-cold ethanol. The solution was centrifuged at 15,000 g for 20 minutes at 4° C. to remove cell debris and precipitated plasma proteins. The ethanol extracts were further purified by ultra-filtration through a 10 kDa MWCO filter. The color intensity of the ethanol extracted plasma solution was then measured at OD620 nm. The results are presented in Table 70 as percentage increase or decrease of the OD values of the Group 1 PBS control. It was expected that treatment groups may display higher OD values due to reduced vascular leakage.

[2] = system: C1-INH mRNA; experiment: C1-INH mRNA in liver of mice treated with ISIS 461756 (Example 18); details: liver; all groups ISIS 461756 25 mg/kg/wk; pretreatment PBS or oligonucleotide 80 mg/kg/wk sc 3 weeks
Procedure: (§1) Vascular permeability induced by ISIS 461756, an antisense oligonucleotide which targets murine C1 inhibitor mRNA, increases vascular permeability in mice and replicates the pathology of hereditary angioedema. The effect of ISIS 482584 on this model was evaluated.
(§2) One group of 8 mice was treated with 40 mg/kg ISIS 482584 administered subcutaneously twice a week for 3 weeks (weekly dose of 80 mg/kg). A second group of 8 mice was treated with 40 mg/kg of the control oligonucleotide, ISIS 141923, administered subcutaneously twice a week for 3 weeks (weekly dose of 80 mg/kg). A third group of 8 mice was treated with PBS administered subcutaneously twice a week for 3 weeks. On day 14, all the groups were treated with 12.5 mg/kg ISIS 461756 administered subcutaneously twice a week for 3 weeks (weekly dose of 25 mg/kg). A control group of mice was treated with PBS administered subcutaneously twice a week for 3 weeks but was not administered ISIS 461756.
(§3) At the end of the treatment period, all the groups were injected with 30 mg/kg of Evans Blue solution into the tail vein. The mice were sacrificed 30 min after the Evans Blue solution administration and colons, feet, ears, and intestines were harvested. The liver was also harvested for RNA analysis.
(§4) RNA was isolated from the liver for RT-PCR analysis of C1-INH and PKK mRNAs. The primer probe set for C1-INH is RTS3218 (forward sequence […], designated herein as SEQ ID NO: 2234; reverse sequence […], designated herein as SEQ ID NO: 2235; probe sequence […], designated herein as SEQ ID NO: 2236). The primer probe set for PKK is RTS3287 (forward sequence […], designated herein as SEQ ID NO: 2237; reverse sequence […], designated herein as SEQ ID NO: 2238; probe sequence […], designated herein as SEQ ID NO: 2239). The results are presented in Table 79 as percent inhibition compared to the PBS control not treated with ISIS 461756.

[3] = system: PKK mRNA; experiment: PKK mRNA in liver of mice treated with ISIS 461756 (Example 18)
Procedure: as §1, §2, §3, §4

[4] = system: thrombus formation (platelet factor-4 mRNA); experiment: FeCl3-induced inferior vena cava thrombosis model, PF-4 quantification (Example 19); details: BALB/c mice; for PF-4 (percentage compared to PBS controls): FeCl3 vena cava
Procedure: Three groups of 8 male BALB/c mice were treated with 10 mg/kg, 20 mg/kg, or 40 mg/kg of ISIS 482584, administered subcutaneously twice a week for 3 weeks (weekly doses of 20 mg/kg, 40 mg/kg, or 80 mg/kg). Two control groups of 12 BALB/c mice each were treated with PBS, administered subcutaneously twice a week for 3 weeks. Two days after the last dose of antisense oligonucleotide or PBS, mice from all groups were anesthetized with 150 mg/kg ketamine mixed with 10 mg/kg xylazine, administered by intraperitoneal injection. Thrombus formation was induced with FeCl3 in all groups of anesthetized mice except the first control group.
In mice undergoing FeCl3 treatment, thrombus formation was induced by applying a piece of filter paper (2×4 mm) pre-saturated with 10% FeCl3 solution directly on the vena cava. After 3 minutes of exposure, the filter paper was removed. Thirty minutes after the filter paper application, a fixed length of the vein containing the thrombus was dissected out for platelet analysis. Liver was collected for RNA analysis.
Real-time PCR quantification of platelet factor-4 (PF-4) was used to quantify platelets in the vena cava as a measure of thrombus formation. PF-4 mRNA levels were measured using the murine primer probe set mPF4_LTS_00086 (forward sequence […], designated herein as SEQ ID NO: 2240; reverse sequence CGCAGCGACGCTCATG, designated herein as SEQ ID NO: 2241; probe sequence […], designated herein as SEQ ID NO: 2242). Results are presented as a percentage of PF-4 in ISIS oligonucleotide-treated mice, as compared to the two PBS-treated control groups. […] Therefore, reduction of PKK by the compound provided herein is useful for inhibiting thrombus formation.

In the case of “ISIS 482584: 5-10-5 MOE gapmer targeting murine PKK, GGCATATTGGTTTTTGGAAT; SEQ ID NO: 2244 (antisense eG*eG*e[5mC]*eA*eT*dA*dT*dT*dG*dG*dT*dT*dT*dT*dT*eG*eG*eA*eA*eT)”, the “Percentage of OD620 nm of Evans Blue dye compared to the PBS basal control, Plasma” value (“Percentage of OD620 nm of Evans Blue dye” for short) ([1]; 10 mg/kg/week) is reported as 36%, the “Percentage of OD620 nm of Evans Blue dye” value ([1]; 20 mg/kg/week) is reported as 56% and the “Percentage of OD620 nm of Evans Blue dye” value ([1]; 40 mg/kg/week) is reported as 83%. For the same substance, the “Percentage of OD620 nm of Evans Blue dye” value ([1]; 80 mg/kg/week) was 93%, the “Percentage of OD620 nm of Evans Blue dye” value ([1]; 160 mg/kg/week) was 95% and the “Percent inhibition of C1-INH mRNA expression compared to the untreated PBS control” value [2] was 77%. The “Percent inhibition of PKK mRNA expression compared to the untreated PBS control” value ([3]; liver, all groups ISIS 461756 25 mg/kg/wk, pretreatment PBS or oligonucleotide 80 mg/kg/wk sc 3 weeks) was 78%, the “PKK expression” value ([3]; mouse liver, 40 mg/kg s.c. twice a week for 3 weeks) was “significantly reduced PKK expression” and the “PF-4 (percentage compared to PBS controls)” value ([4]; 20 mg/kg/wk sc 3 weeks) was 62%. For the same substance, the “PF-4 (percentage compared to PBS controls)” value ([4]; 40 mg/kg/wk sc 3 weeks) was 34%, the “PF-4 (percentage compared to PBS controls)” value ([4]; 80 mg/kg/wk sc 3 weeks) was 25% and the “PF-4 in vena cava” value ([4]; 10-40 mg/kg s.c. twice a week for 3 weeks, vs PBS control) was “significant reduction of PF-4”.
